The subject of one test is hippocampal neurons. Kind of test: Test Example 1: ability to promote axonal outgrowth. The class given is cell-based, Wistar rats. The conditions noted are these: for activity at 3 µM: Hippocampal neuron, 216 h, Compound Conc. = 3 μM, % of control, rat hippocampal neurons, day 9, read-out: Promotion of axonal outgrowth (%). On the procedure:
According to the method of M. P. Mattson [M. P. Mattson, Brain Res. Rev., 13, 179, (1988)], the hippocampal region was isolated from 18-day embryos of female Wistar rats and the neurons were dispersed using the papain dissociation system. Hippocampal neuron were suspended in 5% Nu-serum+B27 supplement+Neurobasal medium at 5×10^4 cells/well/2 mL. 2 mL of the cell suspension were inoculated on a poly-D-lysine-coated 36φ dish and the neuron were incubated at 37° C. in a 5% CO2 incubator.
On day 3 of the incubation period, 1 mL of the culture medium was replaced with 1 mL of 5% Nu-serum+B27 supplement+Neurobasal medium containing 2 mM AraC. Each test compound was added to the culture on day 3 and day 7 of the incubation period. On day 9, cells were fixed in a 4% paraformaldehyde solution. The nerve axons of the fixed cells were stained with the Rabbit anti-growth-associated protein-43 polyclonal antibody and the stained cells were quantified using Kurabo neuron outgrowth-quantication software.
The ability (%) of each test compound to promote axonal outgrowth was calculated from the following equation: The ability to promote axonal outgrowth (%)=[(measurement with a compound of interest)/(measurement of control)]×100
Example Compounds shown in Table 25 were used as test compounds and were each added at concentrations of 3 μM and 0.3 μM.
Since bFGF gives a measurement of about 120 in this test, 120 is used as the threshold to determine whether a given compound has the ability to promote axonal outgrowth

A further test deals with spinal cord neurons. The test is described as follows: Test Example 3: ability to promote the neurite outgrowth of spinal cord neurons. The test is classed as cell-based, Wistar rats. The conditions noted are these: for Promotion of spinal cord neurite outgrowth (%): Compound Conc. = 0.1 μM, % of control, day 3. As to the method:
According to the method of Martin G. Hanson Jr. [J. Neurosci., 1998 Sep. 15; 18(18): 7361-71], the spinal cord region was isolated from 15-day embryos of female Wistar rats and the cells were dispersed using the papain dissociation system. Neurons were collected using 6.8% Metrizamide density gradient and were suspended in 2% FBS+Leibovitz's −15 medium so that the density of the cells will be 2×10^3 cells/well/200 μL. 200 μL of the cell suspension was inoculated on a poly-D-lysine/laminin-coated 96 well plate and the plate was incubated in an incubator at 37° C. Test compounds were added 1 hour after seeding of cells.
On day 3 of the incubation period, neurons were stained with Calcein-AM and the lengths of neurites were determined using IN Cell Analyzer (GE Healthcare Bioscience).
The ability (%) of each test compound to promote neurite outgrowth was calculated from the following equation: The ability to promote neurite outgrowth (%)=[(measurement with a compound of interest)/(measurement of control)]×100
Example Compounds 65, 71, 74, 92, 130 and 135 were used as test compounds and were each added at a concentration of 0.1 μM.
The results are shown in Table 27. bFGF gives a measurement of about 130 in this test.

The test system of test [1] is mixture of human vascular endothelial cells and fibroblasts. The test is described as follows: Test Example 2: ability to promote angiogenesis (angiogenesis test kit KZ-1000). The class given is cell-based. The conditions noted are these: for activity at 3 µM: Compound Conc. = 3 μM. On the procedure: Using an angiogenesis test kit containing a mixture of human vascular endothelial cells and fibroblasts [KZ-1000; Kurabo], the ability of test compounds to promote angiogenesis was evaluated. Each test compound was added on days 1, 4, and 7 of the incubation period. On day 9, cells were immunostained with CD31 and photographed. Control cells were cultured under the same conditions, only without the addition of a test compound, and photographed.
The lumen length of the blood vessel was quantified from the obtained images using an angiogenesis-quantification software. The ability (%) of each test compound to promote angiogenesis was calculated from the following equation: The ability to promote angiogenesis (%)=[(measurement with a compound of interest)/(measurement of control)]×100
Example Compounds shown in Table 26 were used as test compounds.
Since bFGF gives a measurement of about 120 in this test, 120 is used as the threshold to determine whether a given compound has the ability to promote angiogenesis.

A further test addresses T1, chemokine receptor CCR3 (Homo sapiens, UniProt P51677).
T1 sequence (P51677 1-355): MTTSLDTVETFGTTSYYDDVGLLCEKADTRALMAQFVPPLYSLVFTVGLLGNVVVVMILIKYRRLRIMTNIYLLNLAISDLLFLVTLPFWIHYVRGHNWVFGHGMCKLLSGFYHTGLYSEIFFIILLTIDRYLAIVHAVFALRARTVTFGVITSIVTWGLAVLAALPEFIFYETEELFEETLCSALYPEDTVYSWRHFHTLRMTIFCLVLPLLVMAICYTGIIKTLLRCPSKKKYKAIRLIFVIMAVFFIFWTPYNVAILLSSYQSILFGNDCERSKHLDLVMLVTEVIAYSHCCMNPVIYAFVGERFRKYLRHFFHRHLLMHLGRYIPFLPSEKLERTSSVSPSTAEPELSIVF
Kind of test: Affinity to chemokine receptor CCR3. The class given is binding. The settings on record: at a concentration of 10 μM. From the text:
Although the compounds of the present invention are novel compounds, compounds having a partly similar skeleton are described, for example, in Published Japanese Translation of PCT International Application No. 2003-507456, WO 01/79170 and WO 00/23076.

The mark [2] stands for this setting: Homo sapiens, 216 h, lumen length, % of control, day 9, read-out: Promotion of angiogenesis (%).
Setting [3] is: reference, concentration not given, used as threshold.

Data on 16 compounds can be found in US8592435B2, “Nitrogen-containing six-membered aromatic ring derivatives and pharmaceutical products containing the same” (Daiichi Sankyo Company, Limited, priority 2007, dated 2013).

Structures can show the parent of a compound that is named as a salt.

`Cc1nc(OCC(=O)N(C)C2CCN(CC3CCCCC3)CC2)nc(C)c1N` [Compound 71, 2-(5-amino-4,6-dimethylpyrimidine-2-yloxy)-N-(1-(cyclohexylmethyl)piperidine-4-yl)-N-methylacetamide]: the values for the activity at 3 µM (with hippocampal neurons; in test [1] (setting [2])) were 140% and 126%, respectively. Moreover, the “Promotion of spinal cord neurite outgrowth (%)” value with spinal cord neurons stood at 139%.
`Cc1cnc(Cl)nc1NCC(=O)N(C)C1CCN(Cc2ccccc2)CC1` [Compound 109, N-(1-benzylpiperidine-4-yl)-2-(2-chloro-5-methylpyrimidine-4-ylamino)-N-methylacetamide]: the “affinity to chemokine receptor CCR3” value at chemokine receptor CCR3 is listed as 16%. Also, the activity at 3 µM in the test with hippocampal neurons came out at 159%; in test [1] (setting [2]) it was 124%.
On to `Cc1nc(OCC(=O)N(C)C2CCN(Cc3ccc(Cl)cc3)CC2)nc(C)c1N` [Compound 72, 2-(5-amino-4,6-dimethylpyrimidine-2-yloxy)-N-(1-(4-chlorobenzyl)piperidine-4-yl)-N-methylacetamide], for which the activity at 3 µM in the test on hippocampal neurons was 141%; in test [1] (setting [2]), 142%.
Take `Cc1nc(=O)n(CC(=O)N(C)C2CCN(Cc3ccccc3)CC2)c(C)c1N` [Compound 97, 2-(5-amino-4,6-dimethyl-2-oxopyrimidine-1(2H)-yl)-N-(1-benzylpiperidine-4-yl)-N-methylacetamide]: the activity at 3 µM with hippocampal neurons came out at 127%; in test [1] (setting [2]), 134%.
As to `CN(C(=O)COc1nccnc1Cl)C1CCN(Cc2ccccc2)CC1` [Compound 128, N-(1-benzylpiperidine-4-yl)-2-(3-chloropyrazine-2-yloxy)-N-methylacetamide hydrochloride], the activity at 3 µM in the test on hippocampal neurons was determined as 156%. Further, in test [1] (Homo sapiens, 216 h, Compound Conc. = 0.3 μM, lumen length, % of control, day 9, read-out: Promotion of angiogenesis (%)), the activity at 0.3 µM came to 115%.
As to `Cc1nc(OCC(=O)NC2CCN(C(=O)c3ccc(F)cc3)CC2)nc(C)c1N` [Compound 102, 2-(5-amino-4,6-dimethylpyrimidine-2-yloxy)-N-(1-(4-fluorobenzoyl)piperidine-4-yl)acetamide], on chemokine receptor CCR3, the “affinity to chemokine receptor CCR3” value was 0.0%. The activity at 3 µM in the test with hippocampal neurons is 233%.
As to `Cc1nc(OCC(=O)N(C)C2CCN(Cc3ccc(F)cc3)CC2)nc(C)c1N` [Compound 85, 2-(5-amino-4,6-dimethylpyrimidine-2-yloxy)-N-(1-(4-fluorobenzyl)piperidine-4-yl)-N-methylacetamide], the “affinity to chemokine receptor CCR3” value at chemokine receptor CCR3 was 2.4%. Further, the activity at 3 µM with hippocampal neurons was found to be 140%; in test [1] (setting [2]), 123%.
With “bFGF: basic fibroblast growth factor (bFGF), a growth factor known to promote angiogenesis; reference that sets the threshold”, in the test with hippocampal neurons (setting [3]), the “Promotion of axonal outgrowth, measurement of bFGF in this test” value is recorded as “about 120%”. Also, the “Promotion of spinal cord neurite outgrowth, measurement of bFGF in this test” value in the test with spinal cord neurons (reference, concentration not given) is given as “about 130%”. Moreover, the “Promotion of angiogenesis, measurement of bFGF in this test” value in test [1] (setting [3]) is listed as “about 120%”.
In the case of `Cc1nc(OCC(=O)N(C)C2CCN(C(=O)c3ccccc3)CC2)nc(C)c1N` [Compound 74, 2-(5-amino-4,6-dimethylpyrimidine-2-yloxy)-N-(1-benzoylpiperidine-4-yl)-N-methylacetamide], the activity at 3 µM in the test on hippocampal neurons was found to be 159%; in test [1] (setting [2]), 136%. The “Promotion of spinal cord neurite outgrowth (%)” value in the test on spinal cord neurons stood at 125%.
`Cc1nc(OCC(=O)N(C)C2CCN(S(=O)(=O)c3ccccc3)CC2)nc(C)c1N` [Compound 78, 2-(5-amino-4,6-dimethylpyrimidine-2-yloxy)-N-methyl-N-(1-(phenylsulfonyl)piperidine-4-yl)acetamide]: the values for the activity at 3 µM (in the test on hippocampal neurons; in test [1] (setting [2])) were 130% and 144%, respectively.
For `CC(=O)N1CCC(N(C)C(=O)COc2nc(C)c(N)c(C)n2)CC1` [Compound 77, N-(1-acetylpiperidine-4-yl)-2-(5-amino-4,6-dimethylpyrimidine-2-yloxy)-N-methylacetamide hydrochloride] the same measures were 135% and 149%.
As to `Cc1nc(OCC(=O)N(C)C2CCN(C3CCCCC3)CC2)nc(C)c1N` [Compound 79, 2-(5-amino-4,6-dimethylpyrimidine-2-yloxy)-N-(1-cyclohexylpiperidine-4-yl)-N-methylacetamide], the activity at 3 µM in the test with hippocampal neurons turned out to be 123%; in test [1] (setting [2]) it was 133%.
Regarding `Cc1nc(OCC(=O)N(C)C2CCN(Cc3cc(F)c(F)c(F)c3)CC2)nc(C)c1N` [Compound 91, 2-(5-amino-4,6-dimethylpyrimidine-2-yloxy)-N-methyl-N-(1-(3,4,5-trifluorobenzyl)piperidine-4-yl)acetamide], at chemokine receptor CCR3, the “affinity to chemokine receptor CCR3” value came to 18%. Besides, the activity at 3 µM in the test with hippocampal neurons worked out at 150%; in test [1] (setting [2]), 124%.
On to `Cc1nc(OCC(=O)N(C)C2CCN(Cc3ccc(-c4ccccc4)cc3)CC2)nc(C)c1N` [Compound 93, 2-(5-amino-4,6-dimethylpyrimidine-2-yloxy)-N-(1-(biphenyl-4-ylmethyl)piperidine-4-yl)-N-methylacetamide hydrochloride], for which the activity at 3 µM came to 143% with hippocampal neurons and 138% in test [1] (setting [2]).
Take `Cc1nc(OCC(=O)N(C)C2CCN(CC(C)C)CC2)nc(C)c1N` [Compound 73, 2-(5-amino-4,6-dimethylpyrimidine-2-yloxy)-N-(1-isobutylpiperidine-4-yl)-N-methylacetamide]: the activity at 3 µM in the test with hippocampal neurons was found to be 131%; in test [1] (setting [2]), 139%.
`Cc1nc(OCC(=O)N(C)C2CCN(c3ccccc3)CC2)nc(C)c1N` [Compound 82, 2-(5-amino-4,6-dimethylpyrimidine-2-yloxy)-N-methyl-N-(1-phenylpiperidine-4-yl)acetamide]: the activity at 3 µM amounted to 154% with hippocampal neurons and 130% in test [1] (setting [2]).
